Results reported in ChEMBL document CHEMBL1201862, “PubChem BioAssay data set” (2004).
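Cultured in 96-well plates, cells were exposed to test compound for 48 hours across five concentrations. At the GI50, growth is halved.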 The source made the active and inactive calls. Rule as the data show it: active = GI50 up to about 1.1 µM and inactive = higher.

Key:
Test in all cases: NCI-60 cell line screen, 48 h
[1] = test system: A498
[2] = test system: CAKI-1
[3] = test system: HCT-15
[4] = test system: HT-29
[5] = test system: LOX IMVI
[6] = test system: M14
[7] = test system: Malme-3M
[8] = test system: NCI-H23
[9] = test system: NCI/ADR-RES
[10] = test system: OVCAR-5
[11] = test system: SF-268
[12] = test system: SF-539
[13] = test system: SK-MEL-28
[14] = test system: SK-MEL-2
[15] = test system: SNB-75
[16] = test system: SW-620
[17] = test system: UACC-257
[18] = test system: UO-31
[19] = test system: HCC 2998
[20] = test system: HL-60

Compound | GI50 [1] | GI50 [2] | GI50 [3] | GI50 [4] | GI50 [5] | GI50 [6] | GI50 [7] | GI50 [8] | GI50 [9] | GI50 [10] | GI50 [11] | GI50 [12] | GI50 [13] | GI50 [14] | GI50 [15] | GI50 [16] | GI50 [17] | GI50 [18] | GI50 [19] | GI50 [20]
O=C(O)c1ccccc1CN1CCCC(C(=O)O)C1 (stereo not given) | > 100 µM (inactive) | > 100 µM (inactive) | > 100 µM | > 100 µM (inactive) | > 100 µM (inactive) | > 100 µM (inactive) | > 100 µM (inactive) | > 100 µM (inactive) | > 100 µM (inactive) | > 100 µM (inactive) | > 100 µM (inactive) | > 100 µM (inactive) | > 100 µM (inactive) | > 100 µM (inactive) | > 100 µM (inactive) | > 100 µM (inactive) | > 100 µM (inactive) | > 100 µM (inactive) | – | –
COC(=O)C(NC(=O)c1ccccc1)C(c1c(O)cc(O)cc1O)P(=O)(OC)OC (stereo not given) | > 100 µM (inactive) | > 100 µM (inactive) | > 100 µM | > 100 µM (inactive) | > 100 µM (inactive) | 48.8 µM (inactive) | – | 69.5 µM (inactive) | – | > 100 µM (inactive) | > 100 µM (inactive) | > 100 µM (inactive) | > 100 µM (inactive) | > 100 µM (inactive) | > 100 µM (inactive) | > 100 µM (inactive) | > 100 µM (inactive) | > 100 µM (inactive) | > 100 µM (inactive) | 74 µM (inactive)
O=C1C[C@@H]2[C@@H](C=CC23CCCC3)N1O | > 100 µM (inactive) | > 100 µM (inactive) | > 100 µM | > 100 µM (inactive) | > 100 µM (inactive) | > 100 µM (inactive) | > 100 µM (inactive) | > 100 µM (inactive) | – | > 100 µM (inactive) | > 100 µM (inactive) | > 100 µM (inactive) | > 100 µM (inactive) | > 100 µM (inactive) | > 100 µM (inactive) | > 100 µM (inactive) | > 100 µM (inactive) | > 100 µM (inactive) | > 100 µM (inactive) | > 100 µM (inactive)
Cc1ccn2c(=O)cc(-c3ccccc3)nc2c1 | – | – | > 100 µM | > 100 µM (inactive) | – | > 100 µM (inactive) | > 100 µM (inactive) | > 100 µM (inactive) | 72.3 µM (inactive) | > 100 µM (inactive) | > 100 µM (inactive) | > 100 µM (inactive) | > 100 µM (inactive) | – | 18.3 µM (inactive) | > 100 µM (inactive) | > 100 µM (inactive) | – | > 100 µM (inactive) | > 100 µM (inactive)
